From ChEMBL document CHEMBL1201862, “PubChem BioAssay data set” (2004)
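48-hour exposure; five concentrations; linearly interpolated endpoints. Here, GI50 denotes the concentration required for 50% inhibition of growth.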 Active and inactive are the calls of the source. Rule as the data show it: active = GI50 up to about 1.1 µM and inactive = higher.

Columns and labels:
Test in all cases: growth of human tumour cells (NCI), 48 h
SK-MEL-2 = system: SK-MEL-2
ACHN = system: ACHN
HL-60 = system: HL-60
HCT-116 = system: HCT-116
NCI/ADR-RES = system: NCI/ADR-RES
IGROV-1 = system: IGROV-1
SF-268 = system: SF-268
SF-539 = system: SF-539
SNB-19 = system: SNB-19
NCI-H522 = system: NCI-H522
TK-10 = system: TK-10
MDA-N = system: MDA-N
RPMI-8226 = system: RPMI-8226
LOX IMVI = system: LOX IMVI
U-251 = system: U-251
NCI-H226 = system: NCI-H226
UACC-257 = system: UACC-257
OVCAR-5 = system: OVCAR-5

SMILES	GI50 (SK-MEL-2)	GI50 (ACHN)	GI50 (HL-60)	GI50 (HCT-116)	GI50 (NCI/ADR-RES)	GI50 (IGROV-1)	GI50 (SF-268)	GI50 (SF-539)	GI50 (SNB-19)	GI50 (NCI-H522)	GI50 (TK-10)	GI50 (MDA-N)	GI50 (RPMI-8226)	GI50 (LOX IMVI)	GI50 (U-251)	GI50 (NCI-H226)	GI50 (UACC-257)	GI50 (OVCAR-5)
CC1/C(=N/O)CC(c2ccccc2)N(N=O)C1c1ccccc1 (centres undefined)	> 100 µM (inactive)	> 100 µM (inactive)	> 100 µM (inactive)	> 100 µM (inactive)	> 100 µM (inactive)	> 100 µM (inactive)	> 100 µM (inactive)	> 100 µM (inactive)	> 100 µM (inactive)	> 100 µM (inactive)	> 100 µM (inactive)	> 100 µM (inactive)	> 100 µM (inactive)	> 100 µM (inactive)	> 100 µM (inactive)	> 100 µM (inactive)	> 100 µM (inactive)	
COc1c2nc(CCl)n(C)c(=O)c2c(OC)c2c(=O)n(C)c(CCl)nc12		1.19 µM (inactive)	0.653 µM (active)	1.11 µM (active)	2.49 µM (inactive)	1.94 µM (inactive)	1.48 µM (inactive)	3.44 µM (inactive)	2.11 µM (inactive)	1.34 µM (inactive)	0.447 µM (active)	1.49 µM (inactive)	0.303 µM (active)	0.446 µM (active)	1.64 µM (inactive)	3.06 µM (inactive)	1.81 µM (inactive)	2.3 µM (inactive)
N=C(c1ccc2ccccc2c1)c1ccccc1Cc1ccccc1	18.2 µM (inactive)	45.5 µM (inactive)	27.5 µM (inactive)	16.8 µM (inactive)	37.2 µM (inactive)	35.9 µM (inactive)		41.5 µM (inactive)	> 100 µM (inactive)		> 100 µM (inactive)	24.8 µM (inactive)	38 µM (inactive)	45.6 µM (inactive)	35.9 µM (inactive)	28 µM (inactive)	52.6 µM (inactive)	36.8 µM (inactive)
C=CC(=O)N1C/C(=C\c2ccc([N+](=O)[O-])cc2)C(=O)/C(=C/c2ccc([N+](=O)[O-])cc2)C1	0.43 µM (active)	0.16 µM (active)	> 100 µM (inactive)	< 0.017 µM (active)	0.258 µM (active)	0.0728 µM (active)	< 0.0403 µM (active)	< 0.019 µM (active)	1.16 µM (inactive)		0.713 µM (active)	0.169 µM (active)	0.0193 µM (active)	< 0.0179 µM (active)	0.0697 µM (active)	0.2 µM (active)	0.794 µM (active)	0.29 µM (active)
CCn1c(-c2ccc(C)cc2)cs/c1=N\C(P(=O)(O)O)P(=O)(O)O		> 100 µM (inactive)	0.337 µM (active)	> 100 µM (inactive)	> 100 µM (inactive)	> 100 µM (inactive)	> 100 µM (inactive)	> 100 µM (inactive)	> 100 µM (inactive)	> 100 µM (inactive)	> 100 µM (inactive)	> 100 µM (inactive)	> 100 µM (inactive)	> 100 µM (inactive)	> 100 µM (inactive)	> 100 µM (inactive)	> 100 µM (inactive)	> 100 µM (inactive)
CC(=O)NCCCCN(CCCNC(C)=O)C(=O)OCc1ccccc1	> 100 µM (inactive)	> 100 µM (inactive)	> 100 µM (inactive)	> 100 µM (inactive)	> 100 µM (inactive)	> 100 µM (inactive)	> 100 µM (inactive)	> 100 µM (inactive)		> 100 µM (inactive)	> 100 µM (inactive)	> 100 µM (inactive)	> 100 µM (inactive)	> 100 µM (inactive)	> 100 µM (inactive)	> 100 µM (inactive)	> 100 µM (inactive)	> 100 µM (inactive)
CNC(=S)N/N=C1\C(=O)N(CN2CCOCC2)c2ccc([N+](=O)[O-])cc21	6.5 µM (inactive)	17.5 µM (inactive)	23.6 µM (inactive)	15.4 µM (inactive)	16.3 µM (inactive)		20.2 µM (inactive)	17.7 µM (inactive)	21.9 µM (inactive)		13.3 µM (inactive)	67.9 µM (inactive)	21.2 µM (inactive)	17.4 µM (inactive)	14.7 µM (inactive)	15.8 µM (inactive)	25.4 µM (inactive)	22.8 µM (inactive)
O=P1(C(O)/C=C/c2ccccc2)N(Cc2ccccc2)[C@@H]2CCCC[C@H]2N1Cc1ccccc1 (some centres undefined)	2.62 µM (inactive)	3.94 µM (inactive)	2.71 µM (inactive)	3.54 µM (inactive)	9.53 µM (inactive)	3.41 µM (inactive)	4.05 µM (inactive)		6.22 µM (inactive)	2.42 µM (inactive)	7.23 µM (inactive)	4.62 µM (inactive)	2.14 µM (inactive)	3.8 µM (inactive)	4.21 µM (inactive)	4.51 µM (inactive)	4.32 µM (inactive)	10.6 µM (inactive)
